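Five concentrations, 48 hours, 96-well plates. At the GI50, growth is halved.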 The source made the active and inactive calls. Rule as the data show it: active = GI50 up to about 1.1 µM and inactive = higher.
Experiments:
Assay in all cases: growth of human tumour cells (NCI), 48 h
MDA-MB-435 = tested on: MDA-MB-435
SF-295 = tested on: SF-295
M14 = tested on: M14
KM12 = tested on: KM12
EKVX = tested on: EKVX
OVCAR-3 = tested on: OVCAR-3
MDA-MB-231 = tested on: MDA-MB-231
HCT-116 = tested on: HCT-116
PC-3 = tested on: PC-3
MOLT-4 = tested on: MOLT-4
SK-OV-3 = tested on: SK-OV-3
HCT-15 = tested on: HCT-15
SK-MEL-5 = tested on: SK-MEL-5
NCI-H23 = tested on: NCI-H23
A498 = tested on: A498
SN12C = tested on: SN12C
SK-MEL-28 = tested on: SK-MEL-28
IGROV-1 = tested on: IGROV-1
SF-268 = tested on: SF-268
BT-549 = tested on: BT-549
MDA-N = tested on: MDA-N
DU-145 = tested on: DU-145
OVCAR-8 = tested on: OVCAR-8
UO-31 = tested on: UO-31
SF-539 = tested on: SF-539
UACC-62 = tested on: UACC-62
SW-620 = tested on: SW-620
SNB-19 = tested on: SNB-19
SNB-75 = tested on: SNB-75
HL-60 = tested on: HL-60
HT-29 = tested on: HT-29
CAKI-1 = tested on: CAKI-1
COLO 205 = tested on: COLO 205
CCRF-CEM = tested on: CCRF-CEM
TK-10 = tested on: TK-10
RPMI-8226 = tested on: RPMI-8226
RXF 393 = tested on: RXF 393
SK-MEL-2 = tested on: SK-MEL-2
NCI/ADR-RES = tested on: NCI/ADR-RES
NCI-H226 = tested on: NCI-H226
T47D = tested on: T47D
Malme-3M = tested on: Malme-3M
MCF7 = tested on: MCF7
ACHN = tested on: ACHN
UACC-257 = tested on: UACC-257
786-0 = tested on: 786-0
OVCAR-5 = tested on: OVCAR-5
U-251 = tested on: U-251
Hs-578T = tested on: Hs-578T
LOX IMVI = tested on: LOX IMVI
K562 = tested on: K562
NCI-H460 = tested on: NCI-H460
OVCAR-4 = tested on: OVCAR-4
HOP-62 = tested on: HOP-62
HOP-92 = tested on: HOP-92
A549 = tested on: A549
HCC 2998 = tested on: HCC 2998
NCI-H522 = tested on: NCI-H522

With COc1ccc(/C=C2\CCC(C)C3C2=NN(c2ccccc2)C3c2ccc(OC)c(OC)c2)cc1OC (configuration not stated) the GI50 (MDA-MB-435) was 3.64 µM (inactive), the GI50 (SF-295) was 2.64 µM (inactive) and the GI50 (M14) was 4.66 µM (inactive). For the same compound, the GI50 (KM12) was 2.46 µM (inactive), the GI50 (EKVX) was 1.74 µM (inactive) and the GI50 (OVCAR-3) was 5.04 µM (inactive). For the same compound, the GI50 (MDA-MB-231) was 4.19 µM (inactive), the GI50 (HCT-116) was 2.07 µM (inactive) and the GI50 (PC-3) was 3.5 µM (inactive). The GI50 (MOLT-4) was 2.7 µM (inactive), the GI50 (SK-OV-3) was 4.23 µM (inactive) and the GI50 (HCT-15) was 3.01 µM. The GI50 (SK-MEL-5) was 3.61 µM (inactive), the GI50 (NCI-H23) was 4.21 µM (inactive) and the GI50 (A498) was 3.42 µM (inactive). For the same compound, the GI50 (SN12C) was 4.1 µM (inactive), the GI50 (SK-MEL-28) was 4.97 µM (inactive) and the GI50 (IGROV-1) was 2.32 µM (inactive). For the same compound, the GI50 (SF-268) was 3.89 µM (inactive), the GI50 (BT-549) was 3.24 µM (inactive) and the GI50 (MDA-N) was 3.94 µM (inactive). The GI50 (DU-145) was 3.01 µM (inactive), the GI50 (OVCAR-8) was 3.28 µM (inactive) and the GI50 (UO-31) was 6.12 µM (inactive). For the same compound, the GI50 (SF-539) was 2.48 µM (inactive), the GI50 (UACC-62) was 3.43 µM (inactive) and the GI50 (SW-620) was 4.22 µM (inactive). For the same compound, the GI50 (SNB-19) was 8 µM (inactive), the GI50 (SNB-75) was 1.18 µM (inactive) and the GI50 (HL-60) was 1.54 µM (inactive). The GI50 (HT-29) was 3.54 µM (inactive), the GI50 (CAKI-1) was 3.94 µM (inactive) and the GI50 (COLO 205) was 4.22 µM (inactive). The GI50 (CCRF-CEM) was 1.87 µM (inactive), the GI50 (TK-10) was 3.22 µM (inactive) and the GI50 (RPMI-8226) was 1.23 µM (inactive). For the same compound, the GI50 (RXF 393) was 3.23 µM (inactive), the GI50 (SK-MEL-2) was 3.04 µM (inactive) and the GI50 (NCI/ADR-RES) was 3.18 µM (inactive). The GI50 (NCI-H226) was 2.69 µM (inactive), the GI50 (T47D) was 1.71 µM (inactive) and the GI50 (Malme-3M) was 3.08 µM (inactive). For the same compound, the GI50 (MCF7) was 3.21 µM (inactive), the GI50 (ACHN) was 3.84 µM (inactive) and the GI50 (UACC-257) was 4.34 µM (inactive). For the same compound, the GI50 (786-0) was 3.48 µM (inactive), the GI50 (OVCAR-5) was 2.65 µM (inactive) and the GI50 (U-251) was 4.33 µM (inactive). The GI50 (Hs-578T) was 7.29 µM (inactive), the GI50 (LOX IMVI) was 2.49 µM (inactive) and the GI50 (K562) was 2.01 µM (inactive).
For CC(O)CN1c2ccccc2Sc2ccccc21 (configuration not stated), the GI50 (MDA-MB-435) was > 100 µM (inactive), the GI50 (SF-295) was > 100 µM (inactive) and the GI50 (M14) was > 100 µM (inactive). The GI50 (KM12) was > 100 µM (inactive), the GI50 (EKVX) was > 100 µM (inactive) and the GI50 (NCI-H460) was > 100 µM (inactive). For the same compound, the GI50 (OVCAR-3) was > 100 µM (inactive), the GI50 (MDA-MB-231) was > 100 µM (inactive) and the GI50 (HCT-116) was > 100 µM (inactive). For the same compound, the GI50 (OVCAR-4) was > 100 µM (inactive), the GI50 (PC-3) was > 100 µM (inactive) and the GI50 (MOLT-4) was > 100 µM (inactive). The GI50 (SK-OV-3) was > 100 µM (inactive), the GI50 (HCT-15) was > 100 µM and the GI50 (SK-MEL-5) was > 100 µM (inactive). For the same compound, the GI50 (NCI-H23) was > 100 µM (inactive), the GI50 (A498) was > 100 µM (inactive) and the GI50 (SN12C) was > 100 µM (inactive). The GI50 (SK-MEL-28) was > 100 µM (inactive), the GI50 (IGROV-1) was > 100 µM (inactive) and the GI50 (SF-268) was > 100 µM (inactive). For the same compound, the GI50 (BT-549) was > 100 µM (inactive), the GI50 (MDA-N) was > 100 µM (inactive) and the GI50 (DU-145) was > 100 µM (inactive). For the same compound, the GI50 (OVCAR-8) was > 100 µM (inactive), the GI50 (HOP-62) was > 100 µM (inactive) and the GI50 (UO-31) was > 100 µM (inactive). For the same compound, the GI50 (HOP-92) was > 100 µM (inactive), the GI50 (SF-539) was > 100 µM (inactive) and the GI50 (UACC-62) was > 100 µM (inactive). For the same compound, the GI50 (SW-620) was > 100 µM (inactive), the GI50 (SNB-19) was > 100 µM (inactive) and the GI50 (HT-29) was > 100 µM (inactive). For the same compound, the GI50 (CAKI-1) was > 100 µM (inactive), the GI50 (COLO 205) was > 100 µM (inactive) and the GI50 (CCRF-CEM) was > 100 µM (inactive). The GI50 (TK-10) was > 100 µM (inactive), the GI50 (RXF 393) was > 100 µM (inactive) and the GI50 (NCI/ADR-RES) was > 100 µM (inactive). For the same compound, the GI50 (NCI-H226) was > 100 µM (inactive), the GI50 (T47D) was > 100 µM (inactive) and the GI50 (Malme-3M) was > 100 µM (inactive). The GI50 (MCF7) was > 100 µM (inactive), the GI50 (ACHN) was > 100 µM (inactive) and the GI50 (A549) was > 100 µM (inactive). The GI50 (UACC-257) was > 100 µM (inactive), the GI50 (786-0) was > 100 µM (inactive) and the GI50 (HCC 2998) was > 100 µM (inactive). The GI50 (OVCAR-5) was > 100 µM (inactive), the GI50 (U-251) was > 100 µM (inactive) and the GI50 (Hs-578T) was > 100 µM (inactive). The GI50 (NCI-H522) was > 100 µM (inactive), the GI50 (LOX IMVI) was > 100 µM (inactive) and the GI50 (K562) was > 100 µM (inactive).
In the case of CC(C)c1cc(C(C)C)c(S(=O)(=O)N/N=C2\CC3CCC2(C)C3(C)C)c(C(C)C)c1 (configuration not stated), the GI50 (MDA-MB-435) was 34.8 µM (inactive), the GI50 (SF-295) was 10.4 µM (inactive) and the GI50 (M14) was 51.6 µM (inactive). The GI50 (KM12) was 36.1 µM (inactive), the GI50 (EKVX) was 11 µM (inactive) and the GI50 (OVCAR-3) was 33.7 µM (inactive). The GI50 (MDA-MB-231) was 5.74 µM (inactive), the GI50 (HCT-116) was 17.8 µM (inactive) and the GI50 (OVCAR-4) was 29 µM (inactive). For the same compound, the GI50 (PC-3) was 18.3 µM (inactive), the GI50 (MOLT-4) was 6.68 µM (inactive) and the GI50 (SK-OV-3) was 55.3 µM (inactive). For the same compound, the GI50 (HCT-15) was 46 µM, the GI50 (SK-MEL-5) was 14.5 µM (inactive) and the GI50 (NCI-H23) was 17.4 µM (inactive). The GI50 (A498) was 0.0222 µM (active), the GI50 (SN12C) was 12.4 µM (inactive) and the GI50 (SK-MEL-28) was 31.8 µM (inactive). For the same compound, the GI50 (IGROV-1) was 27.3 µM (inactive), the GI50 (SF-268) was 34.9 µM (inactive) and the GI50 (BT-549) was > 100 µM (inactive). For the same compound, the GI50 (MDA-N) was 15.1 µM (inactive), the GI50 (DU-145) was 18 µM (inactive) and the GI50 (OVCAR-8) was > 100 µM (inactive). The GI50 (HOP-62) was 74.8 µM (inactive), the GI50 (UO-31) was 30.4 µM (inactive) and the GI50 (UACC-62) was 37.3 µM (inactive). For the same compound, the GI50 (SW-620) was 57.1 µM (inactive), the GI50 (SNB-19) was 27.5 µM (inactive) and the GI50 (HT-29) was 14.1 µM (inactive). The GI50 (CAKI-1) was 20.2 µM (inactive), the GI50 (COLO 205) was 12.9 µM (inactive) and the GI50 (CCRF-CEM) was 4.69 µM (inactive). The GI50 (TK-10) was 38.8 µM (inactive), the GI50 (RPMI-8226) was 3.08 µM (inactive) and the GI50 (RXF 393) was 11.7 µM (inactive). The GI50 (SK-MEL-2) was 18.9 µM (inactive), the GI50 (NCI/ADR-RES) was 20.8 µM (inactive) and the GI50 (NCI-H226) was 16.9 µM (inactive). The GI50 (T47D) was 11.8 µM (inactive), the GI50 (Malme-3M) was 25.5 µM (inactive) and the GI50 (MCF7) was 10 µM (inactive). The GI50 (ACHN) was 15 µM (inactive), the GI50 (A549) was 23.6 µM (inactive) and the GI50 (UACC-257) was 4.84 µM (inactive). The GI50 (786-0) was 28.4 µM (inactive), the GI50 (HCC 2998) was 23.3 µM (inactive) and the GI50 (OVCAR-5) was 48 µM (inactive). The GI50 (U-251) was 23.3 µM (inactive), the GI50 (Hs-578T) was 29.7 µM (inactive) and the GI50 (NCI-H522) was 5.37 µM (inactive). The GI50 (K562) was 8.53 µM (inactive).

Source: ChEMBL document CHEMBL1201862, “PubChem BioAssay data set” (2004)
